Reference: US12551437B2, “Liposome compositions comprising weak acid drugs and uses thereof” (Pharmosa Biopharm Inc., priority 2017, dated 2026)
Each block holds one compound with its values, some of them ahead of it.

Assays:
[1] = cited from earlier work
[2] = Drug loading and encapsulation efficiency of liposome suspensions (G-25 column separation, HPLC); type: physicochemical
Protocol: Liposome colloidal suspensions were prepared by ethanol injection technique. […] (DSPE-PEG2000) were dissolved in 2.86 ml of ethanol. The lipid solution in ethanol was injected into 17.4 ml of sodium acetate (200 mM or 400 mM) with vigorous stirring at 60° C. Liposomes were formed as soon as the lipid solution was in contact with sodium acetate. This was followed by extruding the liposome suspension through a 200 nm and a 100 nm polycarbonate membrane (six times, respectively). The liposome with about 100 nm was obtained and diafiltrated against a citrate buffer (pH 5.5) to form a higher inside/lower outside pH gradient between the external medium and the internal aqueous medium of the liposomes. The empty liposome suspension was then stored at 4° C. before drug loading process.
PGE1 (alprostadil) was added to the liposome suspension in the preceding paragraph at various drug/lipid molar ratios at room temperature (25° C.) for 20 min. The PGE1 loaded liposome suspension was stored at 4° C.
The liposome suspension was prepared according to the method described in Section 1.1, except that sodium acetate (200 mM or 400 mM) was replaced by sodium bicarbonate (e.g. 200 mM, 400 mM or other concentrations).
The amount of the drug encapsulated into the liposome was quantified using Waters Alliance® HPLC system with a Photodiode Array (PDA) Detector. […] Separation was performed in C18 Column (Phenomenex Prodigy 5U ODS-3 150×4.6 mm), and then post-reaction was carried out by mixed with IN of KOH at 65° C. The peak of the drug e.g. PGE1 was detected at 280 nm. The retention time was about 4.6 minutes.
Encapsulation efficiency (EE), i.e. the percentage of the drug encapsulated (or loaded) in the internal aqueous medium of the liposomes to the total amount of the drug present in the liposome suspension (i.e. drug in the external medium and drug loaded into the internal aqueous medium of the liposomes) was quantified as follows. Briefly, the liposome suspension was subjected to column chromatography. The free or non-associated drug (i.e. the drug in the external medium) and the liposomes containing the encapsulated drugs in the internal aqueous medium were separated from each other by eluting the liposome suspension through a G-25 column. The amount of the free drug was determined using Waters HPLC with PDA detection, and the amount of the encapsulated drug in the internal aqueous medium of the liposome, after destructing the liposomes with methanol (90% methanol and 10% liposome suspension), was also determined using the same method. The encapsulation efficiency was calculated using the following formula,
[formula] where L is the amount of the encapsulated drug in the internal aqueous medium of the liposomes, and F is the amount of the free drug in the external medium.
In addition, the internal drug concentration (mM) was calculated as follows. Internal drug concentration (mM)=[Drug [μg/mL]×EE %/molecular weight]/[trapped volume*]

pulmonary hypertension = experiment: Hypoxia-induced pulmonary hypertension in rats, mean pulmonary arterial pressure (PAP); type: in vivo, Sprague Dawley rats; conditions: treprostinil at 6 μg/kg, single dose, microsprayer at the trachea bifurcation, hypoxic rats (FiO2=0.1)
Protocol: To induce pulmonary hypertension, a pressure catheter was inserted into the pulmonary artery of each rat. One end of the catheter was exposed at the nape of the neck and connected to a pressure transducer. 24 Hours after the catheter insertion, the rats were transferred into a hypoxic chamber where the oxygen (O2) level was reduced to 10% (FiO2=0.1) by increasing the level of nitrogen (N2). Once stable pulmonary hypertension was established, each rat was administered with a single dose of the three test articles: saline (N=6), free treprostinil at 6 μg/kg (N=6) or the pharmaceutical composition of Example 4 with treprostinil at 6 μg/kg (liposomal treprostinil, N=6). The test article was administered using a microsprayer at the trachea bifurcation of the rat. Following the test article administration, mean pulmonary arterial pressure (PAP) was measured at scheduled time points.

[3] = Incubation of liposome suspensions at simulated human physiological condition: pH of external medium and leakage; type: physicochemical; conditions: 20 minutes; for pH at incubation temperature: external buffer 280 mOsm/Kg, citrate 10 mM; for liposome leakage: 280 mOsm/Kg
Protocol: Liposome suspensions using various concentrations of sodium bicarbonate for PGE1 loading were prepared according to section 1.1 of Example 1. The liposome suspensions were incubated at 25° C. and 37° C. for 20 minutes in an external buffer with osmolarity between 280-300 mOsm/Kg, to simulate human physiological condition.
Incubating formulations with a bicarbonate concentration of higher than about 1000 mM in human physiological condition (37° C. and 280-300 mOsm/Kg) generated more CO2, and lead to liposome leakage. The leaked liposomes released bicarbonate salt and the drug from the internal aqueous medium into the external medium and increased the pH of external medium to higher than 6.5.

[4] = liposomal formulation (4-2) HSPC:cholesterol:DSPG 3:2:0.075, internal bicarbonate salt 400 mM, drug loading at 40° C.
[5] = liposomal formulation (4-1) HSPC:cholesterol:DSPE-mPEG2000 3:2:0.075, internal bicarbonate salt 200 mM, drug loading at 25° C.
[6] = liposomal formulation (4-1) HSPC:cholesterol:DSPE-mPEG2000 3:2:0.075, internal bicarbonate salt 400 mM, drug loading at 25° C.
[7] = liposomal formulation (4-1) HSPC:cholesterol:DSPE-mPEG2000 3:2:0.075, internal bicarbonate salt 400 mM, drug loading at 40° C.
[8] = liposomal formulation (4-3) DPPC:Cholesterol:DSPE-mPEG2000 3:2:0.075, internal bicarbonate salt 400 mM, drug loading at 40° C.
[9] = liposomal formulation (4-4) DSPC:DPPC:Cholesterol:mPEG2000-DSPE 2.7:0.3:2:0.075, internal bicarbonate salt 250 mM, drug loading at 40° C.
[10] = liposomal formulation (4-5) HSPC:Cholesterol:mPEG2000-DSPE:stearylamine 3:2:0.075:0.025, internal bicarbonate salt 400 mM, drug loading at 40° C.
[11] = liposomal formulation (4-6) HSPC:DMPC:Cholesterol:mPEG2000-DSPE 2.7:0.3:2:0.075, internal bicarbonate salt 400 mM, drug loading at 40° C.
[12] = sodium bicarbonate internal salt 50 mM, 10 mM of phospholipid
[13] = sodium bicarbonate internal salt 150 mM, 10 mM of phospholipid
[14] = sodium bicarbonate internal salt 200 mM, 10 mM of phospholipid
[15] = sodium bicarbonate internal salt 250 mM, 10 mM of phospholipid
[16] = sodium bicarbonate internal salt 300 mM, 10 mM of phospholipid
[17] = sodium bicarbonate internal salt 400 mM, 10 mM of phospholipid
[18] = sodium bicarbonate internal salt 500 mM, 5 mM of phospholipid
[19] = sodium bicarbonate internal salt 600 mM, 10 mM of phospholipid
[20] = sodium bicarbonate internal salt 800 mM, 10 mM of phospholipid

Structure (SMILES): CC#CCC(C)[C@H](O)/C=C/[C@@H]1[C@H]2c3cccc(CCCC(=O)O)c3O[C@H]2C[C@H]1O (mixture of isomers) [Beraprost]
pKa [1]: 4.2

Structure (SMILES): O=C(O)COC(=O)Cc1ccccc1Nc1c(Cl)cccc1Cl [Aceclofenac]
pKa [1]: 4.7

Structure (SMILES): CC1(C)[C@@H](OC(=O)CCC(=O)O)CC[C@]2(C)[C@H]3C(=O)C=C4[C@@H]5C[C@@](C)(C(=O)O)CC[C@]5(C)CC[C@@]4(C)[C@]3(C)CC[C@@H]12 [Carbenoxolone sodium]
pKa [1]: 4.7

Structure (SMILES): C[C@@H]1C[C@H]2[C@@H]3CCC4=CC(=O)C=C[C@]4(C)[C@@]3(F)[C@@H](O)C[C@]2(C)[C@@]1(O)C(=O)COP(=O)(O)O [Dexamethasone sodium phosphate]
pKa [1]: 1.89

Structure (SMILES): CCCCC[C@H](O)/C=C/[C@@H]1[C@H]2C/C(=C/CCCC(=O)O)O[C@H]2C[C@H]1O [Epoprostenol]
pKa [1]: 4.43

Structure (SMILES): C[C@]12CCC(=O)C=C1CC[C@@H]1[C@@H]2[C@@H](O)C[C@@]2(C)[C@H]1CC[C@]2(O)C(=O)COC(=O)CCC(=O)O [Hydrocortisone sodium succinate]
pKa [1]: 3.66

E.E. [2, 4]: 97.4%
Internal [drug] [2, 4]: 170.34 mM
Internal drug to internal salt molar ratio [2, 4]: 0.426
Measured [drug] [2, 4]: 395.9 µg/mL
Structure (SMILES): CC#CCC(C)[C@H](O)/C=C/[C@@H]1[C@H]2C/C(=C/CCCC(=O)O)C[C@H]2C[C@H]1O (stereo partly drawn) [Iloprost]
pKa [1]: 4.66

Structure (SMILES): O=C(c1ccccc1)c1ccc2n1CCC2C(=O)O (stereo not drawn) [Ketorolac sodium]
pKa [1]: 3.8

E.E. [2, 5]: 91.0%
Internal [drug] [2, 5]: 87.06 mM
Internal drug to internal salt molar ratio [2, 5]: 0.435
Measured [drug] [2, 5]: 766.8 µg/mL
E.E. [2, 6]: 91.2%
Internal [drug] [2, 6]: 135.71 mM
Internal drug to internal salt molar ratio [2, 6]: 0.339
Measured [drug] [2, 6]: 1192.7 µg/mL
Structure (SMILES): O=C(c1ccccc1)c1ccc2n1CCC2C(=O)O (stereo not drawn) [Ketorolac]

E.E. [2, 7]: 93.3%
Internal [drug] [2, 7]: 88.41 mM
Internal drug to internal salt molar ratio [2, 7]: 0.221
Measured [drug] [2, 7]: 1106.3 µg/mL
Structure (SMILES): CN1C(C(=O)Nc2ccccn2)=C(O)c2sc(Cl)cc2S1(=O)=O [Lornoxicam]
pKa [1]: 1.8

E.E. [2, 4]: 98.7%
Internal [drug] [2, 4]: 65.41 mM
Internal drug to internal salt molar ratio [2, 4]: 0.164
Measured [drug] [2, 4]: 174.6 µg/mL
Structure (SMILES): CC(C)N(CCCCOCC(=O)O)c1cnc(-c2ccccc2)c(-c2ccccc2)n1 [MIRE-269 (ACT-333679)]
pKa [1]: 3.77

E.E. [2, 7]: 85.9%
Internal [drug] [2, 7]: 65.27 mM
Internal drug to internal salt molar ratio [2, 7]: 0.163
Measured [drug] [2, 7]: 1132.2 µg/mL
Structure (SMILES): C[C@H]1C[C@@H]2[C@H]([C@@H](O)C[C@@]3(C)[C@H]2CC[C@]3(O)C(=O)COC(=O)CCC(=O)O)[C@@]2(C)C=CC(=O)C=C12 [Methylprednisolone Hemisuccinate (MPSS), Methylprednisolone Hemisuccinate]
pKa [1]: 4.29

Structure (SMILES): C[C@H]1C[C@@H]2[C@H]([C@@H](O)C[C@@]3(C)[C@H]2CC[C@]3(O)C(=O)COC(=O)CCC(=O)O)[C@@]2(C)C=CC(=O)C=C12 [Methylprednisolone sodium succinate]
pKa [1]: 4.6

Structure (SMILES): O=C(O)CCc1nc(-c2ccccc2)c(-c2ccccc2)o1 [Oxaprozin]
pKa [1]: 4.95

E.E. [2, 7]: 84.5%
Internal [drug] [2, 7]: 76.72 mM
Internal drug to internal salt molar ratio [2, 7]: 0.192
Measured [drug] [2, 7]: 944.7 µg/mL
Structure (SMILES): CN1C(C(=O)Nc2ccccn2)=C(O)c2ccccc2S1(=O)=O [Piroxicam]
pKa [1]: 4.8

E.E. [2, 4]: 97.6%
Internal [drug] [2, 4]: 121.78 mM
Internal drug to internal salt molar ratio [2, 4]: 0.304
Measured [drug] [2, 4]: 1530.0 µg/mL
E.E. [2, 8]: 90.4%
Internal [drug] [2, 8]: 115.01 mM
Internal drug to internal salt molar ratio [2, 8]: 0.288
Measured [drug] [2, 8]: 1560 µg/mL
E.E. [2, 9]: 97.4%
Internal [drug] [2, 9]: 77.84 mM
Internal drug to internal salt molar ratio [2, 9]: 0.311
Measured [drug] [2, 9]: 980 µg/mL
E.E. [2, 10]: 93.7%
Internal [drug] [2, 10]: 114.62 mM
Internal drug to internal salt molar ratio [2, 10]: 0.287
Measured [drug] [2, 10]: 1500 µg/mL
E.E. [2, 11]: 94.5%
Internal [drug] [2, 11]: 119.45 mM
Internal drug to internal salt molar ratio [2, 11]: 0.299
Measured [drug] [2, 11]: 1550 µg/mL
Structure (SMILES): CCCCC[C@H](O)CC[C@@H]1[C@H]2Cc3cccc(OCC(=O)O)c3C[C@H]2C[C@H]1O [Prostacycline (treprostinil), treprostinil]
maximum reduction of mean PAP (pulmonary hypertension): 20%

pH at incubation temperature ([3]; bicarbonate 600 mM, 25° C.): 5.42
pH at incubation temperature ([3]; bicarbonate 600 mM, 37° C.): 5.43
pH at incubation temperature ([3]; bicarbonate 800 mM, 25° C.): 5.38
pH at incubation temperature ([3]; bicarbonate 800 mM, 37° C.): 5.53
pH at incubation temperature ([3]; bicarbonate 1000 mM, 25° C.): 5.37
liposome leakage ([3]; bicarbonate 1000 mM, 37° C.): leakage
pH at incubation temperature ([3]; bicarbonate 1000 mM, 37° C.): 6.68
pH at incubation temperature ([3]; bicarbonate 1300 mM, 25° C.): 5.44
liposome leakage ([3]; bicarbonate 1300 mM, 37° C.): leakage
pH at incubation temperature ([3]; bicarbonate 1300 mM, 37° C.): 6.74
E.E. [2, 6]: 92.8%
Internal [drug] [2, 6]: 161.81 mM
Internal drug to internal salt molar ratio [2, 6]: 0.405
Measured [drug] [2, 6]: 1940.8 µg/mL
E.E. [2, 12]: 93.8%
Internal [PGE1] [2, 12]: 19.08 mM
Internal drug to internal salt molar ratio [2, 12]: 0.382
[PGE1] [2, 12]: 226.4 µg/mL
E.E. [2, 13]: 95.7%
Internal [PGE1] [2, 13]: 60.25 mM
Internal drug to internal salt molar ratio [2, 13]: 0.402
[PGE1] [2, 13]: 700.7 µg/mL
E.E. [2, 14]: 95.9%
Internal [PGE1] [2, 14]: 80.47 mM
Internal drug to internal salt molar ratio [2, 14]: 0.402
[PGE1] [2, 14]: 934.0 µg/mL
E.E. [2, 15]: 92.3%
Internal [PGE1] [2, 15]: 119.94 mM
Internal drug to internal salt molar ratio [2, 15]: 0.480
[PGE1] [2, 15]: 1446.4 µg/mL
E.E. [2, 16]: 92.7%
Internal [PGE1] [2, 16]: 146.32 mM
Internal drug to internal salt molar ratio [2, 16]: 0.488
[PGE1] [2, 16]: 1756.9 µg/mL
E.E. [2, 17]: 92.8%
Internal [PGE1] [2, 17]: 161.81 mM
Internal drug to internal salt molar ratio [2, 17]: 0.405
[PGE1] [2, 17]: 1940.8 µg/mL
E.E. [2, 18]: 96.0%
Internal [PGE1] [2, 18]: 252.52 mM
Internal drug to internal salt molar ratio [2, 18]: 0.505
[PGE1] [2, 18]: 1463.9 µg/mL
E.E. [2, 19]: 93.1%
Internal [PGE1] [2, 19]: 215.66 mM
Internal drug to internal salt molar ratio [2, 19]: 0.359
[PGE1] [2, 19]: 2578.3 µg/mL
E.E. [2, 20]: 90.2%
Internal [PGE1] [2, 20]: 130.87 mM
Internal drug to internal salt molar ratio [2, 20]: 0.164
[PGE1] [2, 20]: 1614.9 µg/mL
Structure (SMILES): CCCCC[C@H](O)/C=C/[C@H]1[C@H](O)CC(=O)[C@@H]1CCCCCCC(=O)O [Prostaglandin E1 (PGE1), Prostaglandin E1]
pKa [1]: 4.35

Structure (SMILES): CCCCC[C@H](O)/C=C/[C@H]1[C@H](O)CC(=O)[C@@H]1C/C=C\CCCC(=O)O [Prostaglandin E2 (PGE2), Prostaglandin E2]
pKa [1]: 4.3

Structure (SMILES): O=C(O)COC[C@H]1CC[C@H](COC(=O)N(c2ccccc2)c2ccc(Cl)cc2)CC1 [Ralinepag (APD811), Ralinepag]
pKa [1]: 3.5

Structure (SMILES): O=C(Oc1ccccc1C(=O)O)c1ccccc1O [Salsalate (Disalcid), Salsalate]
pKa [1]: 3.4
